# Experimental data taken from PubChem BioAssay AID1963981 (Molecular Pharmacology Branch, DTP, NCI, 2024).
# System: 354836-022-R-J1-PDC multicell spheroid viability
# Assay: Anticancer human tumor 354836-022-R-J1-PDC patient-derived head and neck squamous cell carcinoma cell line growth inhibition [PI3K]
# Settings: for IC50: curve of first compound; for viability, T/C: stronger effect = lower value
# In short: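 Complex 3D spheroids (cancer cells + endothelial HUVEC + mesenchymal stem cells); drug pairs of targeted agent x inavolisib/alpelisib/duvelisib/copanlisib; half-log series from ~Cmax, max 10 microM if Cmax unknown; endpoint viability.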
# [1] = second compound 0.0316 µM, first compound 0.0316 µM
# [2] = second compound 0.0316 µM, first compound 0.1 µM
# [3] = second compound 0.0316 µM, first compound 0.316 µM
# [4] = second compound 0.0316 µM, first compound 1 µM
# [5] = second compound 0.0316 µM, first compound 3.16 µM
# [6] = second compound 0.0316 µM, first compound 10 µM
# [7] = second compound 0.1 µM, first compound 0.0316 µM
# [8] = second compound 0.1 µM, first compound 0.1 µM
# [9] = second compound 0.1 µM, first compound 0.316 µM
# [10] = second compound 0.1 µM, first compound 1 µM
# [11] = second compound 0.1 µM, first compound 3.16 µM
# [12] = second compound 0.1 µM, first compound 10 µM
# [13] = second compound 0.316 µM, first compound 0.0316 µM
# [14] = second compound 0.316 µM, first compound 0.1 µM
# [15] = second compound 0.316 µM, first compound 0.316 µM
# [16] = second compound 0.316 µM, first compound 1 µM
# [17] = second compound 0.316 µM, first compound 3.16 µM
# [18] = second compound 0.316 µM, first compound 10 µM
# [19] = second compound 1 µM, first compound 0.0316 µM
# [20] = second compound 1 µM, first compound 0.1 µM
# [21] = second compound 1 µM, first compound 0.316 µM
# [22] = second compound 1 µM, first compound 1 µM
# [23] = second compound 1 µM, first compound 3.16 µM
# [24] = second compound 1 µM, first compound 10 µM
# [25] = second compound 3.16 µM, first compound 0.0316 µM
# [26] = second compound 3.16 µM, first compound 0.1 µM
# [27] = second compound 3.16 µM, first compound 0.316 µM
# [28] = second compound 3.16 µM, first compound 1 µM
# [29] = second compound 3.16 µM, first compound 3.16 µM
# [30] = second compound 3.16 µM, first compound 10 µM
# [31] = second compound 10 µM, first compound 0.0316 µM
# [32] = second compound 10 µM, first compound 0.1 µM
# [33] = second compound 10 µM, first compound 0.316 µM
# [34] = second compound 10 µM, first compound 1 µM
# [35] = second compound 10 µM, first compound 3.16 µM
# [36] = second compound 10 µM, first compound 10 µM
# 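Note: spheroids exposed to agents for seven days before the viability read.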
smiles,measurement,setting,value
CC1(C)CCC(CN2CCN(c3ccc(C(=O)NS(=O)(=O)c4ccc(NCC5CCOCC5)c([N+](=O)[O-])c4)c(Oc4cnc5[nH]ccc5c4)c3)CC2)=C(c2ccc(Cl)cc2)C1 + CC(Nc1ncnc2nc[nH]c12)c1cc2cccc(Cl)c2c(=O)n1-c1ccccc1,IC50,second compound 0.0316 µM,> 10 µM
same,IC50,second compound 0.1 µM,> 10 µM
same,IC50,second compound 0.316 µM,> 10 µM
same,IC50,second compound 1 µM,> 10 µM
same,IC50,second compound 3.16 µM,> 10 µM
same,IC50,second compound 10 µM,> 10 µM
same,"viability, T/C",[1],92.4%
same,"viability, T/C",[2],78%
same,"viability, T/C",[3],85.5%
same,"viability, T/C",[4],91.7%
same,"viability, T/C",[5],71.3%
same,"viability, T/C",[6],110%
same,"viability, T/C",[7],81.3%
same,"viability, T/C",[8],89.1%
same,"viability, T/C",[9],97.8%
same,"viability, T/C",[10],99.5%
same,"viability, T/C",[11],67.2%
same,"viability, T/C",[12],93%
same,"viability, T/C",[13],86.3%
same,"viability, T/C",[14],105%
same,"viability, T/C",[15],103%
same,"viability, T/C",[16],97.7%
same,"viability, T/C",[17],64.1%
same,"viability, T/C",[18],93%
same,"viability, T/C",[19],106%
same,"viability, T/C",[20],92.8%
same,"viability, T/C",[21],93.4%
same,"viability, T/C",[22],80.9%
same,"viability, T/C",[23],66.4%
same,"viability, T/C",[24],87.2%
same,"viability, T/C",[25],89.1%
same,"viability, T/C",[26],106%
same,"viability, T/C",[27],95.2%
same,"viability, T/C",[28],85.6%
same,"viability, T/C",[29],60.8%
same,"viability, T/C",[30],93.5%
same,"viability, T/C",[31],90.9%
same,"viability, T/C",[32],87%
same,"viability, T/C",[33],90.2%
same,"viability, T/C",[34],82.2%
same,"viability, T/C",[35],53%
same,"viability, T/C",[36],76.2%
C[C@@H](NC(=O)c1ncnc(N)c1Cl)c1ncc(C(=O)Nc2cc(C(F)(F)F)c(Cl)cn2)s1 + CC(Nc1ncnc2nc[nH]c12)c1cc2cccc(Cl)c2c(=O)n1-c1ccccc1,IC50,second compound 0.0316 µM,> 10 µM
same,IC50,second compound 0.1 µM,> 10 µM
same,IC50,second compound 0.316 µM,> 10 µM
same,IC50,second compound 1 µM,> 10 µM
same,IC50,second compound 3.16 µM,> 10 µM
same,IC50,second compound 10 µM,> 10 µM
same,"viability, T/C",[1],88.8%
same,"viability, T/C",[2],84.2%
same,"viability, T/C",[3],102%
same,"viability, T/C",[4],85%
same,"viability, T/C",[5],99.7%
same,"viability, T/C",[6],75.5%
same,"viability, T/C",[7],90.3%
same,"viability, T/C",[8],104%
same,"viability, T/C",[9],108%
same,"viability, T/C",[10],89%
same,"viability, T/C",[11],89.6%
same,"viability, T/C",[12],59.4%
same,"viability, T/C",[13],103%
same,"viability, T/C",[14],104%
same,"viability, T/C",[15],92.5%
same,"viability, T/C",[16],98.8%
same,"viability, T/C",[17],87.9%
same,"viability, T/C",[18],62.1%
same,"viability, T/C",[19],100%
same,"viability, T/C",[20],94.5%
same,"viability, T/C",[21],97.4%
same,"viability, T/C",[22],96.5%
same,"viability, T/C",[23],102%
same,"viability, T/C",[24],71%
same,"viability, T/C",[25],90.6%
same,"viability, T/C",[26],89.3%
same,"viability, T/C",[27],105%
same,"viability, T/C",[28],99%
same,"viability, T/C",[29],92.8%
same,"viability, T/C",[30],68.9%
same,"viability, T/C",[31],82.7%
same,"viability, T/C",[32],86%
same,"viability, T/C",[33],84.8%
same,"viability, T/C",[34],93.1%
same,"viability, T/C",[35],87.7%
same,"viability, T/C",[36],70.3%
